{"source": "patent US20250082786A1", "about": "“FLUORESCENT MARKERS FOR NEUROFIBRILLAR TANGLES AND USES THEREOF” (FONDAZIONE ISTITUTO ITALIANO DI TECNOLOGIA, priority 2021, published 2025)", "key": {"[1]": {"tested_on": "intracellular TAU aggregates in human iPSC-derived cortical neurons", "assay": "Probe staining of hiPSC-derived cortical neurons, colocalization with anti-T22 and anti-AT8 antibodies", "assay_type": "cell-based", "settings": "100 μM probe, 30 minutes at 37° C., cortical neurons at 30 days in vitro", "procedure": "FIG. 3. (A) Representative binarized fluorescence image showing human iPSC-derived cortical neurons at 30 days in vitro after incubation with BT1 (100 μM) for 30 minutes at 37° C. and staining with anti-T22 and anti-AT8 antibodies. • (B) Representative binarized fluorescence image showing human iPSC-derived cortical neurons at 30 days in vitro after incubation with TAU1 (100 μM) for 30 minutes at 37° C. and staining with anti-T22 and anti-AT8 antibodies. • (C) Fluorescence composite of the above representative images. […] (D) The probe specificity is calculated as the ratio between the antibody intensity within the area covered by BT1 or TAU1 out of the total antibody intensity (n=3), as determined using Image J. Images were acquired at the FV10i confocal microscope using a […] magnification. […]\nFixed hiPSC-derived cortical neurons and RGCs were permeabilized with 0.2% Triton X-100 (Merck Life Science) in 1×TBS and incubated for 1 hour in blocking solution containing 1×TBS, 0.2% Triton X-100, and 5% goat serum (Merck Life Science). […] Fluorescence intensity per field of view was determined using the Software Image J.\nThe ability of the BT1 probe to stain specifically intracellular TAU aggregates was determined as a function of the antibody fluorescent signal detected within the binarized probe signal."}, "[2]": {"tested_on": "intracellular TAU aggregates in human iPSC-derived retinal ganglion cells", "assay": "Probe staining of hiPSC-derived retinal ganglion cells, colocalization with anti-T22 and anti-AT8 antibodies", "assay_type": "cell-based", "settings": "100 μM probe, 30 minutes at 37° C., retinal ganglion cells at 30 days in vitro", "procedure": "FIG. 4. (A) Representative binarized fluorescence image showing human iPSC-derived retinal ganglion cells at 30 days in vitro after incubation with BT1 (100 μM) for 30 minutes at 37° C. and staining with anti-T22 and anti-AT8 antibodies. • (B) Representative binarized fluorescence image showing human iPSC-derived retinal ganglion cells at 30 days in vitro after incubation with TAU1 (100 μM) for 30 minutes at 37° C. and staining with anti-T22 and anti-AT8 antibodies. • (C) Fluorescence composite of the above representative images. The fluorescent image of BT1 was obtained using excitation at 520 nm with a 555/15 nm filter in detection; TAU1 was obtained using excitation at 470 nm with a 510/5 nm filter in detection. […] Cell nuclei were stained with DAPI. • (D) The probe specificity is calculated as the ratio between the antibody intensity within the area covered by BT1 or TAU1 out of the total antibody intensity (n=3), as determined using Image J. Images were acquired at the FV10i confocal microscope using a 60× magnification.\nThe differentiation protocol was a revisited version of Sluch V. et al, 2017 with minor modifications. Human iPSCs were dissociated to single cells with 1× Accutase (Merck Life science) and plated on growth factor-reduced Matrigel coated plates at a density of 1000 cells/mm2 in mTeSR Plus supplemented with 10 μM Rock-inhibitor Y-27632 (Peprotech). […]"}}}
{"smiles": "CC1=CC(/C=C/c2ccc(/C=C/c3ccc(N(C)C)cc3)cc2)=[N+]2C1=Cc1cccn1[B-]2(F)F", "note": "[BT1, 3-((E)-4-((E)-4-(dimethylamino)styryl)styryl)-5,5-difluoro-1-methyl-5H-dipyrrolo[1,2-c:2′,1′-f][1,3,2]diazaborinin-4-ium-5-uide]", "values": [{"measurement": "Ability to detect phosphorylated (AT8-positive) aggregates", "setting": "[1]", "value": "higher ability to detect phosphorylated aggregates when compared to the TAU1 probe"}, {"measurement": "Colocalization of probe signal with AT8 versus T22 antibody signal", "setting": "[1]", "value": "higher colocalization with AT8 signal in respect to T22"}, {"measurement": "Ability to detect phosphorylated (AT8-positive) aggregates", "setting": "[2]", "value": "higher ability to detect phosphorylated aggregates when compared to the TAU1 probe"}, {"measurement": "Colocalization of probe signal with AT8 versus T22 antibody signal", "setting": "[2]", "value": "higher colocalization with AT8 signal in respect to T22"}]}
